PMC9677951 (Journal of medicinal chemistry, 2020)
“And” between values parts separate entries of the source, which are not always exact repeats. Identical values can stand only once. “Also recorded” adds a separate entry of the source. Like-named read-outs stand apart in the source and are kept apart here.

Assays:
WT HIV-1 (IIIB) [1] = conditions: read-out: EC50 WT; previously reported; ref [9]-[13]; cited from earlier work
[2] = system: HIV-1 strain RES056 (K103N+Y181C); conditions: read-out: EC50 RES056, previously reported, ref [9]-[13], cited from earlier work
HIV-1 K103N = conditions: read-out: EC50 K103N; previously reported; ref [9]-[13]; cited from earlier work
HIV-1 E138K [3] = conditions: read-out: EC50 E138K; previously reported; ref [9]-[13]; cited from earlier work
HIV-1 F227L+V106A [4] = conditions: read-out: EC50 F227L+V106A; previously reported; ref [9]-[13]; cited from earlier work
Kunming mice = assay: Acute toxicity study in Kunming mice; assay type: in vivo; conditions: single oral dose 2000 mg/kg
[5] = system: WT virus and NNRTI-resistant HIV-1 strains; assay: Broad-spectrum anti-HIV-1 activity against WT and NNRTI-resistant strains; assay type: cell-based; conditions: Human immunodeficiency virus 1, read-out: EC50 range, broad-spectrum activity
WT HIV-1 (IIIB) [6] = conditions: read-out: EC50 IIIB, MT-4 cells, MTT method
[7] = system: HIV-1 strain RES056 (K103N+Y181C); conditions: read-out: EC50 RES056, MT-4 cells, MTT method
HIV-1 Y181C = assay: Anti-HIV-1 activity against Y181C mutant in MT-4 cells, MTT method; assay type: cell-based; conditions: Human immunodeficiency virus 1, MT4, read-out: EC50 Y181C
HIV-1 Y188L = assay: Anti-HIV-1 activity against Y188L mutant in MT-4 cells, MTT method; assay type: cell-based; conditions: Human immunodeficiency virus 1, MT4, read-out: EC50 Y188L
HIV-1 E138K [8] = assay: Anti-HIV-1 activity against E138K mutant in MT-4 cells, MTT method; assay type: cell-based; conditions: Human immunodeficiency virus 1, MT4, read-out: EC50 E138K
HIV-1 F227L+V106A [9] = assay: Anti-HIV-1 activity against F227L+V106A mutant in MT-4 cells, MTT method; assay type: cell-based; conditions: Human immunodeficiency virus 1, MT4, read-out: EC50 F227L+V106A
WT HIV-1 (IIIB) [10] = assay: microbe, parasite or virus in culture; conditions: Human immunodeficiency virus 1, IIIB, MT4, read-out: EC50 IIIB

SMILES	EC50 (WT HIV-1 (IIIB) [1]) [nM]	EC50 (HIV-1 K103N) [nM]	EC50 (HIV-1 E138K [3]) [nM]	EC50 (HIV-1 F227L+V106A [4]) [nM]	EC50 [7] [nM]	EC50 [2] [nM]	further results
Cc1cc(C#N)cc(C)c1Oc1nc(NC2CCN(Cc3ccc(S(N)(=O)=O)cc3)CC2)nc2ccsc12 [Compound K-5a2]	1.4 ± 0.4	2.9	2.9	4.2 ± 1.2			EC50 ([2]; listed as 3): 30.6 nM and 31 nM
Cc1cc(/C=C/C#N)cc(C)c1Oc1nc(Nc2ccc(C#N)c(F)c2)nc2ccsc12 [Compound 24b, (E)-4-((4-(4-(2-cyanovinyl)-2,6-dimethylphenoxy)thieno[3,2-d]pyrimidin-2-yl)amino)-2-fluorobenzonitrile]							Acute toxicity: behaviors and body weight vs control group (Kunming mice): no abnormal behaviors or significant changes of body weight; Acute toxicity: mortality or poisoning symptoms (Kunming mice; following 7 days, 2000 mg/kg): no mortality or poisoning symptoms; also recorded: no acute toxicity; EC50 [5]: 3.6 to 21.5 nM
O=C1Nc2ccc(Cl)cc2[C@@](C#CC2CC2)(C(F)(F)F)O1 [EFV, efavirenz]					260 ± 47.6		EC50 (WT HIV-1 (IIIB) [6]): 2.49 ± 0.547 nM
Cc1cc(/C=C/C#N)cc(C)c1Nc1ccnc(Nc2ccc(C#N)cc2)n1 [RPV, rilpivirine]	1 ± 0.3					11 ± 1.9	
Cc1cc(C#N)cc(C)c1Oc1nc(Nc2ccc(C#N)cc2)nc(N)c1Br [ETR, Etravirine]	4.1 ± 0.1	2.4 ± 0.6	14 ± 2.2	29 ± 7.7	32.2 ± 12.2	17 ± 1.8	EC50 (HIV-1 Y181C): 14.5 ± 8.22 nM; EC50 (HIV-1 Y188L): 20.4 ± 8.64 nM; EC50 (HIV-1 E138K [8]): 9.76 ± 6.9 nM; EC50 (HIV-1 F227L+V106A [9]): 19.7 ± 7.3 nM; EC50 (WT HIV-1 (IIIB) [10]): 2.55 ± 0.37 nM
